In publication PMC12016938, “A small molecule PKCε inhibitor reduces hyperalgesia induced by paclitaxel or opioid withdrawal” (JCI Insight, 2025):
Several values for one entry are separate records, joined by “and”; a condition that tells them apart may be missing. Equal entries are not always repeated. Structures can show the parent of a compound that is named as a salt.

Legend:
[1] = system: conditioned place aversion; assay: Conditioned place aversion precipitated by naloxone; format: in vivo, DBA/2J mice; details: for Preference score: individual mice, time in environment paired with naloxone (5 mg/kg, i.p.) minus time in it at baseline, negative = aversion
Description: In addition to hyperalgesia, withdrawal from repeated administration of morphine produces somatic signs of withdrawal and conditioned place aversion. We tested the effects of CP612 on these responses. […] Two hours after this last injection of saline or morphine, mice were administered naloxone (5 mg/kg, i.p.) to precipitate somatic signs of withdrawal and conditioned place aversion. Withdrawal from repeated administration of morphine evoked somatic signs of withdrawal (Figure 11, A–C, and Supplemental Figure 2); only the highest dose of CP612 (40 mg/kg) reduced them (Figure 11, A–C) [H PKC inhibition (3, n = 62) = 33.34, P < 0.001]. Withdrawal from repeated administration of morphine also evoked conditioned place aversion (Figure 11, A and C) [F PKC inhibition (5,78) = 7.16, P < 0.001; mice receiving repeated administration of saline with vehicle versus mice receiving repeated administration of morphine with vehicle, P < 0.001], and this was not modified by CP612 at any dose tested (all P > 0.079).
The place conditioning apparatus was an acrylic box enclosed in light- and sound-attenuating, ventilated chambers (MED Associates). The box had 2 compartments separated by a removable sliding door. […] The dimensions of each compartment were 13.5 × 27 × 17 cm. Infrared light beams and photodetectors located along the walls of the box measured general activity and location of the mouse in each compartment, which were recorded using Activity Monitor version 7.0.5.10 software (Med Associates). On day 0 (pretest), drug-naive mice were acclimated for 15 minutes to the place conditioning apparatus without the sliding door, so they had free access to both compartments of the apparatus. This established a baseline side preference, based on the amount of time spent in each compartment. […] On day 6 (conditioning day), mice were pretreated with vehicle (10 mL/kg, i.p.) or CP612 (5, 10, 20, or 40 mg/kg, i.p.), followed by a single injection of morphine (100 mg/kg, i.p.) 4 hours later. Two hours after this last injection of morphine, mice were administered naloxone (5 mg/kg, i.p.), to precipitate withdrawal, and were immediately confined to 1 side of the conditioning apparatus for 20 minutes. During this conditioning period, mice were filmed (Raspberry Pi Camera) to assess somatic signs of withdrawal ([39]). Given the limited number of cameras and the poor quality of some videos, we were only able to film a subset of mice. The following behaviors were given a score of 1 per occurrence and episode: body shakes (paw tremors and wet dog shakes), teeth chatter, rearing, hopping, wall climbing, and backpedaling. These scores were summed to obtain a global withdrawal score and were obtained from an independent observer who was blind to the experimental conditions. A subset of videos was scored by 2 observers, to ensure internal validity (Cronbach’s α = 0.980, Correlation Observer r = 0.97, slope 1.15, P < 0.005). On day 7 (test day), mice were placed in the conditioning apparatus with free access to both compartments, for 15 minutes. We recorded the time spent in each compartment.

[2] = biological target: T1, PRKG2 (Protein Kinase CGMP-Dependent 2) (Homo sapiens, UniProt Q13237); assay: scanMax kinome panel, PRKG2; format: binding; details: 200 nM CP612
T1 construct: purchased Eurofins-DiscoverX
Description: CP612 was screened for kinome specificity at 200 nM against 468 kinases using the scanMax assay panel from Eurofins-DiscoverX. CP612 inhibited 10 other WT kinases besides PKCε, all to < 10% of control: CLK1 (CDC Like Kinase 1), CLK4, PKN1 (Protein kinase N1), PKN2, PKCδ, PKCη, PKCθ, PRKG2 (Protein Kinase CGMP-Dependent 2), ROCK1, and ROCK2.

PKCθ = PKCθ (Homo sapiens, UniProt Q04759); assay: Lance-FRET kinase assay, PKCθ; format: biochemical; parameters: purchased SignalChem Biotech
Description: Kinase assays. CP612 was assayed against His-AVI–tagged human PKCε (1 nM) produced in Sf9 cells, and ROCK1 (Carna Biosciences; 5 nM) using the Lance-FRET kinase assay system (PerkinElmer Revvity). Other human recombinant PKCs (SignalChem Biotech) were assayed in triplicate at the following concentrations: PKCβII 1.6 nM, PKCγ 500 pM, PKCδ 5 nM, PKCθ 500 pM, and PKCζ 500 pM. PKCs were incubated in a 15 μL reaction volume with kinase buffer (20 mM Tris-HCL [pH 7.4], 10 mM MgCl2, 0.25 mM EGTA, 0.1 mg/mL BSA, and 0.15% Triton X-100), 50 nM ULight-labeled CREBtide […] (PerkinElmer, TRF0107, Revvity), and test compound. […] After incubation at 27°C for another 60 minutes, phosphorylation was detected using a FlexStation 3 Microplate Reader (Molecular Devices) in LANCE TR-FRET mode (excitation = 340 nm, emission = 665 nm) and expressed as relative fluorescence units (RFU). The percentage of inhibition was calculated as: (signal without test compound − signal with test compound)/(signal without test compound − signal without ATP) × 100. […]
Kinase assays used 11-point concentration-response curves and results were analyzed by nonlinear regression using Prism 9 (GraphPad Software) to determine IC50 values. […] Scores for pain threshold, conditioned place preference, and self-administration were analyzed by ANOVA using the following factors. […]

[3] = system: morphine self-administration
[4] = system: hyperalgesia induced by morphine withdrawal; assay: Time course of hyperalgesia induced by morphine withdrawal, von Frey SUDO; details: for von Frey filament number that led to paw withdrawal: single male mouse; for Hyperalgesia after withdrawal from repeated morphine: male C57BL/6J mice, 20–100 mg/kg i.p. twice daily 5 days
Description: Mice received repeated injections of saline (10 mL/kg, i.p.) or morphine (20–100 mg/kg, i.p.) twice daily for 5 days, to induce dependence.
Mechanical nociceptive thresholds in mice were quantified using the simplified up-down (SUDO) method with von Frey filaments ([36]). […] The force to bend the filaments ranged from 0.008 g (filament 1) to 6 g (filament 12). Mice were acclimated to the test room and apparatus for 1 hour prior to testing. We started testing mice with filament 5 (bending force 0.16 g) and stepped up or down according to the response of the mouse. The filament that elicited a definite paw withdrawal or notable flinch was recorded. All measures were averaged between both hind paws and are expressed as filament number, which allows for parametric analysis ([36]). The higher the filament number, the higher the pain threshold (and the lower the sensitivity to pain). Prior to starting experiments, baseline threshold levels were obtained 3–4 times at 2- to 5-day intervals on each of the hind paws of the mouse.
Morphine dependence in mice was induced by repeated i.p. injections (10 mL/kg) of morphine administered at increasing doses, over 5 days (day 1: 20 mg/kg, day 2: 40 mg/kg, day 3: 60 mg/kg, day 4: 80 mg/kg, day 5: 100 mg/kg). Injections of each dose were administered twice daily, 6 hours apart.

Chain of PKCθ (Q04759 whole entry): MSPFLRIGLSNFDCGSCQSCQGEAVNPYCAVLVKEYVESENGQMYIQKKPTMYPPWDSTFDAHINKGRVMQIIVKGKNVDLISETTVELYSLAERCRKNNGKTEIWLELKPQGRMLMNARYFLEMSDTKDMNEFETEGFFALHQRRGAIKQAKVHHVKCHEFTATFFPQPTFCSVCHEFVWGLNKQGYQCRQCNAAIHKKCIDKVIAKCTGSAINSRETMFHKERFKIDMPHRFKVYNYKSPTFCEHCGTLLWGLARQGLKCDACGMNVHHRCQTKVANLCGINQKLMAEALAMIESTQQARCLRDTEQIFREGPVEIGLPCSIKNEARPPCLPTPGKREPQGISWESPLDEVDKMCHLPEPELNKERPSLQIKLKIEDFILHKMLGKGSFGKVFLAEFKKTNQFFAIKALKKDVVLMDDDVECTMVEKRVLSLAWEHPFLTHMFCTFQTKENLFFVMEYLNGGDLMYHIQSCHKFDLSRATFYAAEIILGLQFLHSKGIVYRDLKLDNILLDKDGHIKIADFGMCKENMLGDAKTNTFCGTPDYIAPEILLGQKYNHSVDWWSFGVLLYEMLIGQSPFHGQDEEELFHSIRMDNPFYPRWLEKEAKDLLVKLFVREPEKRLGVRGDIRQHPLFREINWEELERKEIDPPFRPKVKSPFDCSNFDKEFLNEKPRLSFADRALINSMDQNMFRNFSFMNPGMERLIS
T1 sequence (Q13237 whole entry): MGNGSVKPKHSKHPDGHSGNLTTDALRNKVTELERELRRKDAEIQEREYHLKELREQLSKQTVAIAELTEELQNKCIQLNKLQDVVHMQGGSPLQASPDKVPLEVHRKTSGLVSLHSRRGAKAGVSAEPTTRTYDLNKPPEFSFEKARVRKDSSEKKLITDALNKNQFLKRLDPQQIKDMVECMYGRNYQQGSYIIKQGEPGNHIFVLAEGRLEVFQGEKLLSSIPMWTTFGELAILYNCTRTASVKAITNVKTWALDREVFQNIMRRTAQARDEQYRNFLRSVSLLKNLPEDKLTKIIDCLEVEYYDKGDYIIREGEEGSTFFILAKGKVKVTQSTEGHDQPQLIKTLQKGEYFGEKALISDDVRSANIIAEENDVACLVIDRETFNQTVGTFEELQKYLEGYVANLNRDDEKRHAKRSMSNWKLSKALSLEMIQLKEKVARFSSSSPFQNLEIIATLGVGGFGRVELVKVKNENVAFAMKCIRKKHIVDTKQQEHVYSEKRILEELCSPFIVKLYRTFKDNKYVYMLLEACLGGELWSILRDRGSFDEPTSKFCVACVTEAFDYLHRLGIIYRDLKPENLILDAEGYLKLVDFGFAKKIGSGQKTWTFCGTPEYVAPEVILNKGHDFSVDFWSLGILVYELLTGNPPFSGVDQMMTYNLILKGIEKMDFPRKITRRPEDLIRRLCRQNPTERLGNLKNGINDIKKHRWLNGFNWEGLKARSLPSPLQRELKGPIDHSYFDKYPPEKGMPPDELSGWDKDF

| Compound | Preference score ([1]; Morphine + CP612 5 mg/kg) | Preference score ([1]; Morphine + CP612 10 mg/kg) | Preference score ([1]; Morphine + CP612 20 mg/kg) | Preference score ([1]; Morphine + CP612 40 mg/kg) | Effect on conditioned place aversion ([1]; male DBA/2J mice, CP612 5, 10, 20, 40 mg/kg i.p.) | scanMax % of control, PRKG2 [2] | inhibition at 0.03 µM (PKCθ; 30 nM CP612, read-out: Inhibition of novel PKCs (PKCθ)) | IC50 (PKCθ; Figure 1B PKC isozyme panel) | Effect on morphine self-administration (breaking point and self-infusions) ([3]; CP612 30 mg/kg i.p. 18 hours prior, 30 mg/kg) | Inf (avg last 3 days) ([3]; rats, morphine SA 18 h after CP612, average of last 3 days, infusions) | von Frey filament number that led to paw withdrawal ([4]; 1week after last morphine injection) | von Frey filament number that led to paw withdrawal ([4]; 6h after last morphine injection) | von Frey filament number that led to paw withdrawal ([4]; 24h after last morphine injection) | von Frey filament number that led to paw withdrawal ([4]; Baseline) | Hyperalgesia after withdrawal from repeated morphine ([4]; 6 hours after last injection) | Hyperalgesia after withdrawal from repeated morphine ([4]; 24 hours and 1 week after last injection) |
| --- | --- | --- | --- | --- | --- | --- | --- | --- | --- | --- | --- | --- | --- | --- | --- | --- |
| N[C@H](CNC(=O)C1(c2ccc(Cl)cc2)CCCC1)c1ccc(C(=O)Nc2ccncc2)cc1 [CP612] | -0.0843 and -0.28 and -0.22 and -0.17 and -0.023 and -0.35 | -0.07 and -0.22 and -0.42 and -0.21 and -0.19 and -0.38 and -0.15 and -0.12 and 0.14 and -0.13 and -0.10 and 0.0341 and -0.23 | -0.0656 and -0.40 and -0.13 and -0.25 and -0.10 and -0.30 and -0.31 | -0.17 and -0.18 and -0.35 and -0.39 and 0.000111 and -0.22 and 0.013 and -0.28 and -0.25 and -0.09 and -0.27 | not modified | < 10 % of control | > 50% | 0.0307 µM | did not modify self-administration | 8 and 12 | – | – | – | – | – | – |
| CN1CC[C@]23c4c5ccc(O)c4O[C@H]2[C@@H](O)C=C[C@H]3[C@H]1C5 [Morphine, Morphine sulfate, reference compound] | – | – | – | – | – | – | – | – | – | – | 5.5 filament number and 7.5 filament number and 6 filament number | 7.5 filament number and 9.5 filament number and 8 filament number and 7 filament number | 5.5 filament number and 6.5 filament number and 6 filament number and 7.5 filament number | 7.5 filament number and 8.5 filament number and 8 filament number and 9.5 filament number | not present | present |
